Key:
[1] = 101 kPa, Liquid
[2] = xn = mol fraction of the nth substance listed; conditions: 101 kPa, Liquid

CO [methanol]
[1]
Conditions | mass density [kg/m3] | speed of sound [m/s]
298.15 K | 786.531 | –
303.15 K | 781.808 | 1086.4
308.15 K | 777.066 | 1070.1
313.15 K | 772.283 | 1054
318.15 K | 767.474 | 1037.9

CC#N [acetonitrile]
[1]
Conditions | mass density [kg/m3] | speed of sound [m/s]
298.15 K | 776.533 | 1278.6
303.15 K | 771.116 | 1258.7
308.15 K | 765.66 | 1238.7
313.15 K | 760.162 | 1218.5
318.15 K | 754.462 | 1198.3

CC#N [acetonitrile] + CCCCn1cc[n+](C)c1.F[B-](F)(F)F
[2], x2 = 0
Conditions | mass density [kg/m3] | speed of sound [m/s]
298.15 K | 776.533 | 1278.6
303.15 K | 771.116 | 1258.7
308.15 K | 765.66 | 1238.7
313.15 K | 760.162 | 1218.5
318.15 K | 754.462 | 1198.3

CO [methanol] + CCCCn1cc[n+](C)c1.F[B-](F)(F)F
[2], x2 = 0
Conditions | mass density [kg/m3] | speed of sound [m/s]
298.15 K | 786.531 | –
303.15 K | 781.808 | 1086.4
308.15 K | 777.066 | 1070.1
313.15 K | 772.283 | 1054
318.15 K | 767.474 | 1037.9

CCCCn1cc[n+](C)c1.F[B-](F)(F)F [1-butyl-3-methylimidazolium tetrafluoroborate] + CC#N
[2]
Conditions | mass density, 298.15 K [kg/m3] | mass density, 303.15 K [kg/m3] | mass density, 308.15 K [kg/m3] | mass density, 313.15 K [kg/m3] | mass density, 318.15 K [kg/m3] | speed of sound, 298.15 K [m/s] | speed of sound, 303.15 K [m/s] | speed of sound, 308.15 K [m/s] | speed of sound, 313.15 K [m/s] | speed of sound, 318.15 K [m/s]
x1 = 0.0103 | 794.416 | 789.093 | 783.745 | 778.368 | 772.971 | 1289.2 | 1269.3 | 1249.6 | 1230 | 1210.3
x1 = 0.0442 | 845.059 | 839.982 | 834.883 | 829.765 | 824.63 | 1315.7 | 1297 | 1278.2 | 1259.5 | 1240.8
x1 = 0.1032 | 913.689 | 908.908 | 904.123 | 899.327 | 894.531 | 1354.8 | 1337.2 | 1319.7 | 1302.3 | 1284.9
x1 = 0.2015 | 994.016 | 989.579 | 985.147 | 980.715 | 976.287 | 1407.7 | 1391.8 | 1375.8 | 1359.6 | 1344.1
x1 = 0.2931 | 1045.58 | 1041.36 | 1037.15 | 1032.94 | 1028.74 | 1445.2 | 1430.2 | 1415.2 | 1400.5 | 1385.8
x1 = 0.3935 | 1086.98 | 1082.93 | 1078.89 | 1074.86 | 1070.84 | 1476.8 | 1462.7 | 1448.6 | 1434.6 | 1420.8
x1 = 0.5352 | 1128.52 | 1124.64 | 1120.78 | 1116.92 | 1113.08 | 1509.2 | 1495.9 | 1482.6 | 1469.7 | 1456.9
x1 = 0.7043 | 1162.31 | 1158.57 | 1154.85 | 1151.13 | 1147.43 | 1535.9 | – | 1511.1 | 1498.8 | 1486.6
x1 = 1 | 1201.42 | 1197.88 | 1194.35 | 1190.82 | 1187.29 | 1576 | 1555.5 | 1543.9 | 1532.5 | 1521.2

CCCCn1cc[n+](C)c1.F[B-](F)(F)F [1-butyl-3-methylimidazolium tetrafluoroborate]
[1]
Conditions | mass density [kg/m3] | speed of sound [m/s]
298.15 K | 1201.42 | 1576
303.15 K | 1197.88 | 1555.5
308.15 K | 1194.35 | 1543.9
313.15 K | 1190.82 | 1532.5
318.15 K | 1187.29 | 1521.2

CCCCn1cc[n+](C)c1.F[B-](F)(F)F [1-butyl-3-methylimidazolium tetrafluoroborate] + CO
[2]
Conditions | mass density, 298.15 K [kg/m3] | mass density, 303.15 K [kg/m3] | mass density, 308.15 K [kg/m3] | mass density, 313.15 K [kg/m3] | mass density, 318.15 K [kg/m3] | speed of sound, 298.15 K [m/s] | speed of sound, 303.15 K [m/s] | speed of sound, 308.15 K [m/s] | speed of sound, 313.15 K [m/s] | speed of sound, 318.15 K [m/s]
x1 = 0.0086 | 805.151 | 800.482 | 795.796 | 791.081 | 786.347 | – | 1105.3 | 1089.3 | 1073.5 | 1057.8
x1 = 0.0473 | 871.093 | 866.582 | 862.063 | 857.529 | 852.979 | – | 1162.4 | 1147.8 | 1133.1 | 1118.6
x1 = 0.0989 | 935.734 | 931.386 | 927.032 | 922.668 | 918.304 | – | 1224.6 | 1211 | 1197.5 | 1184
x1 = 0.2027 | 1020.75 | 1016.6 | 1012.46 | 1008.33 | 1004.19 | – | 1321.8 | 1309.2 | 1296.5 | 1284
x1 = 0.3516 | 1090.69 | 1086.81 | 1082.62 | 1079.1 | 1075.21 | 1423.6 | 1411.3 | 1399.1 | – | 1375
x1 = 0.4958 | 1131.97 | 1128.15 | 1124.35 | 1120.99 | 1117.11 | 1477 | 1465 | 1453.1 | 1441.8 | 1430.1
x1 = 0.6961 | 1168.33 | 1164.63 | 1160.96 | 1157.3 | 1153.66 | 1524.1 | 1512.2 | 1500.4 | 1488.8 | 1477.2
x1 = 0.7982 | 1181.54 | 1177.91 | 1174.28 | 1170.67 | 1167.07 | 1541.2 | 1529.5 | 1517.9 | 1506.3 | 1494.8
x1 = 1 | 1201.42 | 1197.88 | 1194.35 | 1190.82 | 1187.29 | 1576 | 1555.5 | 1543.9 | 1532.5 | 1521.2

— the NIST ThermoML archive (doi:10.1016/j.jct.2006.01.016)
